Experimental data reported in patent US9034921B2, “Diphenylmethane derivatives as SGLT2 inhibitors” (GREEN CROSS CORPORATION, priority 2011, dated 2015).

Target: human SGLT2 (Homo sapiens (Human), UniProt P31639)
Experiment: Inhibitory effects on human SGLT2 activities (14C-AMG uptake, sodium-dependent glucose transport assay)
Assay type: cell-based
Conditions: CHO cells stably expressing hSGLT2, 37° C., 2 h, single determinations
Source text: Test 1: Cloning and Cell Line Construction for Human SGLT2
Human SGLT2 (hSGLT2) gene was amplified by PCR from cDNA-Human Adult Normal Tissue Kidney (Invitrogen). The hSGLT2 sequence was cloned into pcDNA3.1(+) for mammalian expression and stably transfected into chinese hamster ovary (CHO) cells. SGLT2-expressing clones were selected based on resistance to G418 antibiotic (Geneticin) and activity in the ^14C-α-methyl-D-glucopyranoside (^14C-AMG) uptake assay.
Test 2: Inhibitory Effects on Human SGLT2 Activities
For sodium-dependent glucose transport assay, cells expressing hSGLT2 were seeded into a 96-well culture plate at a density of 5×10^4 cells/well in RPMI medium 1640 containing 10% fetal bovine serum. The cells were used 1 day after plating. They were incubated in pretreatment buffer (10 mM HEPES, 5 mM Tris, 140 mM choline chloride, 2 mM KCl, 1 mM CaCl2, and 1 mM MgCl2, pH 7.4) at 37° C. for 10 min. They were then incubated in uptake buffer (10 mM HEPES, 5 mM Tris, 140 mM NaCl, 2 mM KCl, 1 mM CaCl2, 1 mM MgCl2, and 1 mM ^14C-nonlabeled AMG pH 7.4) containing ^14C-labeled AMG (8 μM) and the inventive compound or dimethyl sulfoxide (DMSO) vehicle at 37° C. for 2 h. Cells were washed twice with washing buffer (pretreatment buffer containing 10 mM AMG at room temperature) and then the radioactivity was measured using a liquid scintillation counter. IC50 was determined by nonlinear regression analysis using GraphPad PRISM [Katsuno, K. et al. J. Pharmacol. Exp. Ther. 2007, 320, 323-330; Han, S. et al. Diabetes, 2008, 57, 1723-1729].

Chain of human SGLT2 (P31639 whole entry): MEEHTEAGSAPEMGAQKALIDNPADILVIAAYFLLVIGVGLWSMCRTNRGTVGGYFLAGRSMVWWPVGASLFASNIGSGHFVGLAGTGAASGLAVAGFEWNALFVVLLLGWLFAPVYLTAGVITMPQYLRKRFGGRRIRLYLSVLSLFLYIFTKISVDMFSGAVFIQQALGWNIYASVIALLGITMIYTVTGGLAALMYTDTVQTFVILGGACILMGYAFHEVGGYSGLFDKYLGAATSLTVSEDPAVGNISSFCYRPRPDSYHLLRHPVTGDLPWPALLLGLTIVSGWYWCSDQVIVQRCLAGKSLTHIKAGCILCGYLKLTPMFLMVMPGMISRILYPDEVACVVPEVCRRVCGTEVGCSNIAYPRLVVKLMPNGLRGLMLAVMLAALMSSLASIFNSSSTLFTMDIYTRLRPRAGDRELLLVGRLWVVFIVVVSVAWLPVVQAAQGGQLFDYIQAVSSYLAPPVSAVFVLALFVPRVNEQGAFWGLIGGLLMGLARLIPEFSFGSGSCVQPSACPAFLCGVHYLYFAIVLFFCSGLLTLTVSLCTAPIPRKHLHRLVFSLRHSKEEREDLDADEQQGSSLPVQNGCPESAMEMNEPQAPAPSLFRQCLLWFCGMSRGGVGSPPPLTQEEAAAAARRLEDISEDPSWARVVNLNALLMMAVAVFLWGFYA

| Structure (SMILES) | IC50 [nM] |
| --- | --- |
| CCCc1ccc(Cc2cc([C@@H]3O[C@H](CO)[C@@H](O)[C@H](O)[C@H]3O)c3occc3c2Cl)cc1 [Example E174, (2S,3R,4R,5S,6R)-2-(4-Chloro-5-(4-propylbenzyl)benzofuran-7-yl)-6-(hydroxymethyl)tetrahydro-2H-pyran-3,4,5-triol] | 574 |
| CCCc1c(Cc2ccc(OCC)cc2)cc([C@@H]2O[C@H](CO)[C@@H](O)[C@H](O)[C@H]2O)c2c1OCC2 [Example E229, (2S,3R,4R,5S,6R)-2-(6-(4-Ethoxybenzyl)-7-propyl-2,3-dihydrobenzofuran-4-yl)-6-(hydroxymethyl)-tetrahydro-2H-pyran-3,4,5-triol] | 5.6 |
| OC[C@H]1O[C@@H](c2cc(Cc3ccc4c(c3)NCCO4)c(Cl)c3c2CCO3)[C@H](O)[C@@H](O)[C@@H]1O [Example E231, (2S,3R,4R,5S,6R)-2-(7-Chloro-6-((3,4-dihydro-2H-benzo[b][1,4]oxazin-6-yl)methyl)-2,3-dihydrobenzofuran-4-yl)-6-(hydroxymethyl)-tetrahydro-2H-pyran-3,4,5-triol] | 5.56 |
| CCOc1ccc(Cc2cc([C@@H]3O[C@H](CO)[C@@H](O)[C@H](O)[C@H]3O)cc(-c3ccccc3Cl)c2C)cc1 [Example E086, (2S,3R,4R,5S,6R)-2-(6′-Chloro-5-(4-ethoxybenzyl)-6-methylbiphenyl-3-yl)-6-(hydroxymethyl)-tetrahydro-2H-pyran-3,4,5-triol] | 15.4 |
| COc1cc(Cl)c(Cc2ccc3c(c2)OCCO3)cc1[C@@H]1O[C@H](OC)[C@@H](O)[C@H](O)[C@H]1O [Example E096, (2S,3R,4R,5S,6S)-2-(4-Chloro-5-((2,3-dihydrobenzo[b][1,4]dioxin-6-yl)methyl)-2-methoxyphenyl)-6-methoxy-tetrahydro-2H-pyran-3,4,5-triol] | 18.5 |
| COc1ccc(Cc2cc([C@@H]3O[C@H](CO)[C@@H](O)[C@H](O)[C@H]3O)c3c(c2Cl)C(=O)CO3)cc1 [Example E195, 4-Chloro-5-(4-methoxybenzyl)-7-((2S,3R,4R,5S,6R)-3,4,5-trihydroxy-6-(hydroxymethyl)tetrahydro-2H-pyran-2-yl)benzofuran-3(2H)-one] | 35.1 |
| CCOc1ccc(Cc2cc([C@@H]3O[C@H](S(C)(=O)=O)[C@@H](O)[C@H](O)[C@H]3O)c(OC)cc2Cl)cc1 [Example E112, (2S,3R,4R,5S,6R)-2-(4-Chloro-5-(4-ethoxybenzyl)-2-methoxyphenyl)-6-(methylsulfonyl)tetrahydro-2H-pyran-3,4,5-triol] | 7.44 |
| CCOc1ccc(Cc2cc([C@@H]3O[C@H](CO)[C@@H](O)[C@H](O)[C@H]3O)c3sccc3c2Cl)cc1 [Example E046, (2S,3R,4R,5S,6R)-2-(4-Chloro-5-(4-ethoxybenzyl)benzo[b]thiophen-7-yl)-6-(hydroxymethyl)tetrahydro-2H-pyran-3,4,5-triol] | 275 |
| COc1ccc(Cc2cc([C@@H]3O[C@H](CO)[C@@H](O)[C@H](O)[C@H]3O)c3occ(OC)c3c2Cl)cc1 [Example E202, (2S,3R,4R,5S,6R)-2-(4-Chloro-3-methoxy-5-(4-methoxybenzyl)benzofuran-7-yl)-6-(hydroxymethyl)tetrahydro-2H-pyran-3,4,5-triol] | 42.3 |
| CSc1ccc(C2OCc3ccc([C@@H]4O[C@H](CO)[C@@H](O)[C@H](O)[C@H]4O)cc32)cc1 (stereo partly drawn) [Example E102, (2R,3S,4R,5R,6S)-2-(Hydroxymethyl)-6-(3-(4-(methylthio)phenyl)-1,3-dihydroisobenzofuran-5-yl)-tetrahydro-2H-pyran-3,4,5-triol] | 75.7 |
| CCOc1ccc(Cc2cc([C@@H]3O[C@H](CO)[C@@H](O)[C@H](O)[C@H]3O)c3c(c2Cl)OCC3OC)cc1 (stereo partly drawn) [Example E227, (2S,3R,4R,5S,6R)-2-(7-Chloro-6-(4-ethoxybenzyl)-3-methoxy-2,3-dihydrobenzofuran-4-yl)-6-(hydroxymethyl)-tetrahydro-2H-pyran-3,4,5-triol] | 8.99 |
| O=S1(=O)CCOc2ccc(Cc3cc([C@@H]4O[C@H](CO)[C@@H](O)[C@H](O)[C@H]4O)ccc3Cl)cc21 [Example E073, (2S,3R,4R,5S,6R)-2-(4-Chloro-3-((1,1-dioxo-2,3-dihydrobenzo[b][1,4]oxathiin-6-yl)methyl)phenyl)-6-(hydroxymethyl)-tetrahydro-2H-pyran-3,4,5-triol] | 78.5 |

These reach a lower IC50. Values come first.

| IC50 [nM] | Structure (SMILES) |
| --- | --- |
| 5.3 | Cc1c(Cc2ccc3c(c2)OCCO3)cc([C@@H]2O[C@H](CO)[C@@H](O)[C@H](O)[C@H]2O)cc1-c1ccccc1 [Example E084, (2S,3R,4R,5S,6R)-2-(5-((2,3-Dihydrobenzo[b][1,4]dioxin-6-yl)methyl)-6-methylbiphenyl-3-yl)-6-(hydroxymethyl)-tetrahydro-2H-pyran-3,4,5-triol] |
| 3.73 | CCOc1ccc(Cc2cc([C@@H]3O[C@H](CO)[C@@H](O)[C@H](O)[C@H]3O)cc(-c3cccs3)c2C)cc1 [Example E090, (2S,3R,4R,5S,6R)-2-(3-(4-Ethoxybenzyl)-4-methyl-5-(thiophen-2-yl)phenyl)-6-(hydroxymethyl)-tetrahydro-2H-pyran-3,4,5-triol] |
| 3.21 | CCOc1ccc(Cc2cc([C@@H]3O[C@H](CF)[C@@H](O)[C@H](O)[C@H]3O)c3c(c2Cl)OCC3)cc1 [Example E126, (2S,3R,4R,5S,6S)-2-(7-Chloro-6-(4-ethoxybenzyl)-2,3-dihydrobenzofuran-4-yl)-6-(fluoromethyl)tetrahydro-2H-pyran-3,4,5-triol] |
| 3.17 | CCc1ccc(Cc2cc([C@@H]3O[C@H](CO)[C@@H](O)[C@H](O)[C@H]3O)c3c(c2Cl)NCCO3)cc1 [Example E214, (2S,3R,4R,5S,6R)-2-(5-Chloro-6-(4-ethylbenzyl)-3,4-dihydro-2H-benzo[b][1,4]oxazin-8-yl)-6-(hydroxymethyl)tetrahydro-2H-pyran-3,4,5-triol] |
| 2.99 | OC[C@H]1O[C@@H](c2ccc(Cl)c(Cc3ccc4c(c3)CCCC4)c2)[C@H](O)[C@@H](O)[C@@H]1O [Example E060, (2S,3R,4R,5S,6R)-2-(4-Chloro-3-((5,6,7,8-tetrahydronaphthalen-2-yl)methyl)phenyl)-6-(hydroxymethyl)-tetrahydro-2H-pyran-3,4,5-triol] |
| 1.76 | CCc1ccc(Cc2cc([C@@H]3O[C@H](CO)[C@@H](O)[C@H](O)[C@H]3O)c3c(c2Cl)C(C)(C)CO3)cc1 [Example E217, (2S,3R,4R,5S,6R)-2-(4-Chloro-5-(4-ethylbenzyl)-3,3-dimethyl-2,3-dihydrobenzofuran-7-yl)-6-(hydroxymethyl)tetrahydro-2H-pyran-3,4,5-triol] |
| 1.52 | CCOc1ccc(Cc2cc([C@@H]3O[C@H](CO)[C@@H](O)[C@H](O)[C@H]3O)c3c(c2Cl)OCC3)cc1 [Example E024, (2S,3R,4R,5S,6R)-2-(7-Chloro-6-(4-ethoxybenzyl)-2,3-dihydrobenzofuran-4-yl)-6-(hydroxymethyl)tetrahydro-2H-pyran-3,4,5-triol] |
| 1.02 | COc1ccc(Cc2cc([C@@H]3O[C@H](CO)[C@@H](O)[C@H](O)[C@H]3O)c3c(c2Cl)CC(C)O3)cc1 (stereo partly drawn) [Example E131, (2S,3R,4R,5S,6R)-2-(4-Chloro-5-(4-methoxybenzyl)-2-methyl-2,3-dihydrobenzofuran-7-yl)-6-(hydroxymethyl)tetrahydro-2H-pyran-3,4,5-triol] |
| 0.783 | CCOc1ccc(Cc2cc([C@@H]3O[C@H](SC)[C@@H](O)[C@H](O)[C@H]3O)c(OC)cc2Cl)cc1 [Example E111, (2S,3R,4R,5S,6R)-2-(4-Chloro-5-(4-ethoxybenzyl)-2-methoxyphenyl)-6-(methylthio)tetrahydro-2H-pyran-3,4,5-triol] |
| 0.753 | CCc1ccc(Cc2cc([C@@H]3O[C@H](CO)[C@@H](O)[C@H](O)[C@H]3O)c3c(c2Cl)OCCC3)cc1 [Example E023, (2S,3R,4R,5S,6R)-2-(8-Chloro-7-(4-ethylbenzyl)chroman-5-yl)-6-(hydroxymethyl)tetrahydro-2H-pyran-3,4,5-triol] |
| 0.706 | CCc1ccc(Cc2cc([C@@H]3O[C@H](CO)[C@@H](O)[C@H](O)[C@H]3O)c3c(c2Cl)CC(C)O3)cc1 (stereo partly drawn) [Example E132, (2S,3R,4R,5S,6R)-2-(4-Chloro-5-(4-ethylbenzyl)-2-methyl-2,3-dihydrobenzofuran-7-yl)-6-(hydroxymethyl)tetrahydro-2H-pyran-3,4,5-triol] |
| 0.475 | CN(C)c1ccc(Cc2cc([C@@H]3O[C@H](CO)[C@@H](O)[C@H](O)[C@H]3O)c3c(c2Cl)CCC3)cc1 [Example E116, (2S,3R,4R,5S,6R)-2-(7-Chloro-6-(4-(dimethylamino)benzyl)-2,3-dihydro-1H-inden-4-yl)-6-(hydroxymethyl)tetrahydro-2H-pyran-3,4,5-triol] |
| 0.463 | OC[C@H]1O[C@@H](c2cc(Cc3ccc(C4CC4)cc3)c(Cl)c3c2CCO3)[C@H](O)[C@@H](O)[C@@H]1O [Example E172, (2S,3R,4R,5S,6R)-2-(7-Chloro-6-(4-cyclopropylbenzyl)-2,3-dihydrobenzofuran-4-yl)-6-(hydroxymethyl)tetrahydro-2H-pyran-3,4,5-triol] |
